For assay [1], the target named is T1, Adrenergic receptor alpha-2 (Rattus norvegicus, UniProt P22086+P19328+P22909).
T1 sequence (P22086 whole entry): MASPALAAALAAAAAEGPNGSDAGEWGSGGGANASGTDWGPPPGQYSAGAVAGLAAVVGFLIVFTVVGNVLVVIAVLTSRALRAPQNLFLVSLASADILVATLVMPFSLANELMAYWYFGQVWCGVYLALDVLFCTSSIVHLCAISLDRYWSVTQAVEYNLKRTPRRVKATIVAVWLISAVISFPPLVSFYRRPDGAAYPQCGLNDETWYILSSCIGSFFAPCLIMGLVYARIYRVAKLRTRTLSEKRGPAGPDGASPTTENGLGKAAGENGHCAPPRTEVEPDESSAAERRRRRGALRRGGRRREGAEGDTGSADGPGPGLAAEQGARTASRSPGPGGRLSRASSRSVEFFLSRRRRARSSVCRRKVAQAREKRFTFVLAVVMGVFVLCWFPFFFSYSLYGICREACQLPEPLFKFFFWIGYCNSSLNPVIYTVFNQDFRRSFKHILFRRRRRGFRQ
T1 sequence (P19328 whole entry): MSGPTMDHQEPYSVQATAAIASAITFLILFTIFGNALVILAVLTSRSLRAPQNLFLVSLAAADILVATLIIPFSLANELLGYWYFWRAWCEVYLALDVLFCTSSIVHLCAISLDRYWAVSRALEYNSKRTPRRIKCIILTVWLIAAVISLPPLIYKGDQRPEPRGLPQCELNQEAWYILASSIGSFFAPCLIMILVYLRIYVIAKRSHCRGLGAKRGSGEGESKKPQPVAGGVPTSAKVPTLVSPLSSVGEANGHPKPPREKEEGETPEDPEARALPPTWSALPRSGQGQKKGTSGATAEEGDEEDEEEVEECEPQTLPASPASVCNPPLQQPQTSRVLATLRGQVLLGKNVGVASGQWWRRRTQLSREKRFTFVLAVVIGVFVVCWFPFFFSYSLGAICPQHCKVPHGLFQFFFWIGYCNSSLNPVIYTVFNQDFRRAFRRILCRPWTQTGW
T1 sequence (P22909 whole entry): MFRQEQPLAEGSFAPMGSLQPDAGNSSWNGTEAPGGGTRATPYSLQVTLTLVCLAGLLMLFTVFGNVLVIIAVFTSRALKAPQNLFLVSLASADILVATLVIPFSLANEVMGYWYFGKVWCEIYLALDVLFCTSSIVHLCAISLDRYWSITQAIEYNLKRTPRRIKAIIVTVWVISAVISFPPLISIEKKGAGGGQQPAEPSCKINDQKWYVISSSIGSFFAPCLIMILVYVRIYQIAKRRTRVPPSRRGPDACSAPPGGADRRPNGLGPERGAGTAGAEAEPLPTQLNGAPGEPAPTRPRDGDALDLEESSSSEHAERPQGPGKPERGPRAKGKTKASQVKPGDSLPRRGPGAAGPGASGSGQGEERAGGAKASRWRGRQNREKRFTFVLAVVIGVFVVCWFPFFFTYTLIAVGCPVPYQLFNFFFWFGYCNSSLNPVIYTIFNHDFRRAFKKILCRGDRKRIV
Briefly: Evaluated for its presynaptic Alpha-2 adrenergic receptor antagonistic activity against rat vas deferens using clonidine as the control expressed as slope. It counts as functional, tissue-based.

Assay [2] addresses T2, Adrenergic receptor alpha-1 (Rattus norvegicus, UniProt P15823+P23944+P43140).
T2 sequence (P15823 whole entry): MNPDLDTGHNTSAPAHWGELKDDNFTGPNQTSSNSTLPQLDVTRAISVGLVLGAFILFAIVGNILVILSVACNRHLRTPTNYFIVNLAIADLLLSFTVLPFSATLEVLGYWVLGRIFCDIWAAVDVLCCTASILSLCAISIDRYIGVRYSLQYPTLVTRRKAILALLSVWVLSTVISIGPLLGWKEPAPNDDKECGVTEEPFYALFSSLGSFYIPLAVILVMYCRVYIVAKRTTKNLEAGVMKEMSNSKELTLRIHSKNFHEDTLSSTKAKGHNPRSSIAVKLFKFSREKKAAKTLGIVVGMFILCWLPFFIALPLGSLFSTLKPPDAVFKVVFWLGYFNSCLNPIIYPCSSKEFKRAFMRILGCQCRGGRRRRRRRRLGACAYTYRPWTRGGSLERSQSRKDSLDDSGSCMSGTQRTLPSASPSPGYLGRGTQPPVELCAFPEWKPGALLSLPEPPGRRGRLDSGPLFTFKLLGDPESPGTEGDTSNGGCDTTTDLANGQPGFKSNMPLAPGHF
T2 sequence (P23944 whole entry): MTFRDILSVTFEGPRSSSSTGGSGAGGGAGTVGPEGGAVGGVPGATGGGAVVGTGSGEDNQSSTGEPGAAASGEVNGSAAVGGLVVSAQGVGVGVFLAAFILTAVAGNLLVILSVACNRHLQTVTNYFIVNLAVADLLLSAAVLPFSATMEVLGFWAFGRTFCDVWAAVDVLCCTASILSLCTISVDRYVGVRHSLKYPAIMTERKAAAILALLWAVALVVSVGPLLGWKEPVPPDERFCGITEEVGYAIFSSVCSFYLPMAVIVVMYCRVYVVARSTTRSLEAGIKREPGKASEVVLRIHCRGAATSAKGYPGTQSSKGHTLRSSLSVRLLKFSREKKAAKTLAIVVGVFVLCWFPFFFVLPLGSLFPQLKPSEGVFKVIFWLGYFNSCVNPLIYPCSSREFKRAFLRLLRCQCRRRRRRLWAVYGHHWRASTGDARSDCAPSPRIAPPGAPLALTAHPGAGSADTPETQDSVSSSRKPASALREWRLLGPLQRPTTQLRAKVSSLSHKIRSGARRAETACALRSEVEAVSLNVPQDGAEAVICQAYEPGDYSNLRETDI
T2 sequence (P43140 whole entry): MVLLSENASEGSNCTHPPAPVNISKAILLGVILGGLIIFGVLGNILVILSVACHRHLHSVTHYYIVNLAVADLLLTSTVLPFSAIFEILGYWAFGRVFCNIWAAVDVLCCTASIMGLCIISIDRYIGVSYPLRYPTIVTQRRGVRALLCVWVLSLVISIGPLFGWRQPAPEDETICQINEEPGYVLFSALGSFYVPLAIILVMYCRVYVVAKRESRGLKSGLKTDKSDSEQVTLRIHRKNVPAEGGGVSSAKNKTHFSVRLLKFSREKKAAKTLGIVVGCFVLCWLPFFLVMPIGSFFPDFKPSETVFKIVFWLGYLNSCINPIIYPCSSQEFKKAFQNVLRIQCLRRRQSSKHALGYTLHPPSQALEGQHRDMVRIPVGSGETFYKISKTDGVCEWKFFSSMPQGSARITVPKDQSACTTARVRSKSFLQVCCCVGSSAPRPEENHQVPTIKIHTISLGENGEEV
Nature of the assay: In vitro binding affinity at Alpha-1 adrenergic receptor by radioligand binding assay using [3H]prazosin. Type of assay: protein assay.

Assay [3] has as its target T1, Adrenergic receptor alpha-2. Briefly: In vitro binding affinity at Alpha-2 adrenergic receptor in rat cortex by radioligand binding assay using [3H]rauwolscine.
The species entered for the next assay is Rattus norvegicus. Briefly: Concentration required for its norepinephrine reuptake inhibitory activity in synaptosomal rat hyphalamic preparations. It counts as functional.

Consider `c1ccc([C@@H]2CCN(C[C@@H]3CCCc4c3ccc3c4OCO3)C2)cc1`, for which the pA2 (as a rule, a measure of antagonist potency on a negative log scale) in assay [1] is 7.91. For the same molecule, the Ki (as a rule, the equilibrium dissociation constant of an inhibitor or competing ligand from its target) came out at 47.4 nM in assay [2] and 0.5 nM in assay [3]. It took 1700 nM to reach half-maximal inhibition in the assay listed under Rattus norvegicus (Rattus norvegicus) (IC50).
`c1ccc([C@H]2CCN(C[C@@H]3CCCc4c3ccc3c4OCO3)C2)cc1` had a pA2 in assay [1] of 7.78. The results for the Ki in assay [2] and in assay [3] were 106 nM and 0.428 nM, respectively. The IC50 (usually the concentration that gives 50% inhibition) in the assay filed under Rattus norvegicus came out at 3110 nM.
The corresponding values for `c1ccc(C2CCN(CC3CCCc4c3ccc3c4OCO3)C2)cc1` (stereo in doubt; 1a/b) are 7.68, 112 nM, 1.23 nM and 841 nM.
`c1ccc([C@H]2CCN(C[C@H]3CCCc4c3ccc3c4OCO3)C2)cc1` returned a pA2 in assay [1] of 6.65. The Ki in assay [2] stood at 189 nM; in assay [3] it was 4.56 nM. The molecule further showed an IC50 in the assay filed under Rattus norvegicus (Rattus norvegicus) of 1450 nM.
In the case of `c1ccc(C2CCN(CC3CCCc4c3ccc3c4OCO3)C2)cc1` (stereo in doubt; 6a/b), the pA2 in assay [1] is recorded as 7.84. In addition, the Ki in assay [2] came to 75.9 nM; in assay [3], 0.708 nM. The same molecule came in with an IC50 in the assay filed under Rattus norvegicus of 1320 nM.
The molecule `CN(C)CCCN1c2ccccc2CCc2ccccc21` [IMIPRAMINE] showed a Ki in assay [3] of 255 nM. Further, the concentration for half-maximal inhibition (IC50) in the assay filed under Rattus norvegicus (Rattus norvegicus) came out at 105 nM.
As to `c1ccc([C@@H]2CCN(C[C@H]3CCCc4c3ccc3c4OCO3)C2)cc1`, the pA2 in assay [1] came to 6.78. Further, the values for the Ki in assay [2] and in assay [3] were 104 nM and 2.08 nM, respectively. The IC50 in the assay listed under Rattus norvegicus (Rattus norvegicus) came out at 636 nM.

Values taken from ChEMBL document CHEMBL1127896, “Synthesis and pharmacological characterization of ABT-200: a putative novel antidepressant combining potent -2 antagonism with moderate NE uptake inhibition” (Bioorg Med Chem Lett, 1994).
